“Also recorded” adds a separate entry of the source. Read-outs that look alike come from different tables or passages of the source. Marks after values point to notes of the source that are not given here.
Key:
[1] = target: T1, μ-opioid receptors (MOP receptors) (Mus musculus, UniProt P42866); assay type: cell-based
T1 construct: expressed in transfected cells; host or cells: HEK293

[2] = target: T1, μ-opioid receptors (MOP receptors); assay type: cell-based; remark: listed apart in the source
Description: Briefly, HEK-MOP cells were pre-incubated with 2% (2-hydroxypropyl)-β-cyclodextrin (βCD) for 1 h at 37° C. to deplete cholesterol from caveloae in the cell membrane. Cells were washed with DMEM and then utilized in the forskolin-stimulated cAMP assay as described above. […] Cells were washed with DMEM and then utilized in the forskolin-stimulated cAMP assay as described above.

T1 sequence (P42866 whole entry): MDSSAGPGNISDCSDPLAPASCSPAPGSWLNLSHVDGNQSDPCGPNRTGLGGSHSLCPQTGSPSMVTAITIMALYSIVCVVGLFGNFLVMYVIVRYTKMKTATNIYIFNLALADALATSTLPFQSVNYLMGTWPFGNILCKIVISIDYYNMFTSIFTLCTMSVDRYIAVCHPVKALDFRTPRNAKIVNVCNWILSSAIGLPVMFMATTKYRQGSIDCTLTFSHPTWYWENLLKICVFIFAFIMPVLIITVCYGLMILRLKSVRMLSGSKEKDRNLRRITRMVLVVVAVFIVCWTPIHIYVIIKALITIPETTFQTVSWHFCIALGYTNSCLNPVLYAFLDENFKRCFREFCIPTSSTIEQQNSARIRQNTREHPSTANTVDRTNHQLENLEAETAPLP

SMILES | effect on forskolin-stimulated cAMP responses ([1]; MOP-transfected HEK293 (FIG. 11)) | % of forskolin stimulated cyclic AMP response ([2]; Conc 10^−3 M) [%] | % of forskolin stimulated cyclic AMP response ([2]; Conc 10^−4 M) | % of forskolin stimulated cyclic AMP response ([2]; Conc 10^−5 M) | % of forskolin stimulated cyclic AMP response ([2]; Conc 10^−6 M) | % of forskolin stimulated cyclic AMP response ([2]; Conc 10^−7 M) [%] | % of forskolin stimulated cyclic AMP response ([2]; Conc 10^−8 M) | % of forskolin stimulated cyclic AMP response ([2]; Conc 10^−9 M) | % of forskolin stimulated cyclic AMP response ([2]; Conc 10^−11 M) [%] | % of forskolin stimulated cyclic AMP response ([2]; Conc 10^−13 M) | % of forskolin stimulated cyclic AMP response ([2]; Conc 10^−14 M) | % of forskolin stimulated cyclic AMP response ([2]; Conc 10^−15 M) | % of forskolin stimulated cyclic AMP response ([2]; Conc 10^−16 M) | % of forskolin stimulated cyclic AMP response ([2]; Conc 10^−17 M) | % of forskolin stimulated cyclic AMP response ([2]; Conc 10^−18 M) | % of forskolin stimulated cyclic AMP response ([1]; Conc 10^−10 M) | % of forskolin stimulated cyclic AMP response ([1]; Conc 10^−12 M)
Nc1nc2c(nc(Br)n2[C@@H]2O[C@@H]3COP(=O)(O)O[C@H]3[C@H]2O)c(=O)[nH]1 [Compound 8-Br-cGMP, 8-Br-cGMP, reference compound] | did not inhibit forskolin-stimulated cAMP responses; also recorded: lack of effects |  |  |  |  |  |  |  |  |  |  |  |  |  |  |  | 
O=C(O)c1c(-c2ccc(F)cc2)no[n+]1[O-] [Compound 18] |  | 7.1 | 79.0% | 97.7% | 101.0% | 91.9 | 81.7% | 142.3^a % | 77.5 | 85.4% | 85.3% | 90.4% | 89.6% | 94.1% | 54.7^a % | 83.6% | 82.2%
O=Cc1c(-c2ccccc2)no[n+]1[O-] [Compound 14] |  | 8.5 | 40.7^a % | 51.0^a % | 110.6^a % | 121.5 | 113.2^a % | 107.4% | 62.7 | 94.2% | 103.4^a % | 103.8% | 129.8% | 120.5% | 95.1% | 69.5% | 92.8%
Cc1c(-c2ccc(F)cc2)no[n+]1[O-] [Compound 23] |  | 46.6 | 121.2% | 66.2% | 90.0% | 89.0 | 98.2% | 64.0% | 75.7 | 87.6% | 79.2% | 80.4% | 77.1% | 73.6% | 80.2% | 56.5% | 74.7%
[O-][n+]1onc(-c2ccccc2)c1CO [Compound 31] |  | 3.8 | 182.4^a % | 96.9^a % | 60.0^a % | 108.4 | 36.2^a % | 76.8^a % | 61.0 | 85.7% | 77.5^a % | 42.2^a % | 54.8% | 48.5^a % | 94.5% | 42.8^a % | 81.4%
CC(=O)c1c(-c2ccccc2)no[n+]1[O-] [Compound 27] |  | 22.4 | 73.8^a % | 128.2% | 60.0% | 83.2 | 86.4% | 56.4% | 84.4 | 88.3^a % | 78.2% | 115.4% | 162.4% | 108.6^a % | 56.5% | 46.0% | 66.7^a %
Cc1c(-c2ccccc2)no[n+]1[O-] [Compound 13] |  | 40.2 | 67.1% | 109.4^a % | 84.5^a % | 78.8 | 80.3% | 94.9% | 66.3 | 89.6% | 99.4^a % | 101.5% | 88.3^a % | 105.3% | 61.2% | 106.9% | 108.8%
[O-][n+]1onc(-c2ccccc2)c1-c1ccccc1 [Compound 5] |  | 69.6 | 99.8% | 120.4% | 142.4% | 112.7 | 73.6% | 57.7% | 76.3 | 102.3% | 105.6% | 117.0% | 91.2% | 75.8% | 68.7% | 79.2% | 119.1%
[O-][n+]1onc(-c2ccc(F)cc2)c1-c1ccc(F)cc1 [Compound 21] |  | 7.1 | 42.1% | 63.5% | 53.0% | 47.3 | 57.5% | 46.5% | 29.9 | 61.5% | 59.7% | 64.0% | 67.7% | 49.1% | 38.7% | 38.4% | 42.9%
CCc1c(C(=O)O)no[n+]1[O-] [Compound 8] |  | 6.8 | 68.2% | 90.0% | 104.7% | 102.9 | 114.3% | 107.0% | 88.3 | 112.7% | 94.8% | 97.6% | 140.5% | 115.0% | 72.8% | 79.4% | 128.3%

From patent US8822509B2, “Pain-relieving compositions and uses therefor” (priority 2006, dated 2014)
